Assay results from US7524866B2, “Prevention and treatment of androgen—deprivation induced osteoporosis” (GTx, Inc., priority 2001, dated 2009).

Legend:
[1] = test system: orchidectomized rats (ORX); test: Static and dynamic bone histomorphometry of the proximal tibia (Example 4); format: in vivo, rat; details: for loss of trabecular bone volume at the proximal tibia: 10 mg/kg/d Tor; for loss of trabecular bone volume at the proximal tibia / Orx-induced increase in bone turnover parameters at the proximal tibia: E 0.2 mg/kg/d; for Orx-induced increase in bone turnover parameters at the proximal tibia: Tor 5 and 10 mg/kg/d, p<0.05 vs. Orx+vehicle; for Bone Form Rate, Bone Volume Ref / Bone Form. Rate, Bone Surface Ref / Bone Formation Rate, Tissue Volume Ref / Mineral Apposition Rate / Mineralizing Surface / Osteoclast Number/Bone Surface / Osteoclast Surface / Trabecular Bone Volume / Trabecular Number / Trabecular Separation / Trabecular Thickness: proximal tibia, 6 wks, mean
Protocol: Eight month-old male Sprague Dawley rats were either sham-operated (SHAM) or orchidectomized (ORX). Treatment began immediately following surgery. The treatment groups were as described in Table 5.
Animals were given calcein (intraperitoneally) 12 and 2 days prior to sacrifice. Femurs and lumbar vertebra (L5) were preserved frozen wrapped in saline-soaked gauze. Tibiae and lumbar vertebrae (L4) were preserved in 10% formalin for 48 hours, then transferred to 70% ethanol for long-term storage.
Histology and Static and Dynamic Bone Histomorphometry: Approximately 1.1 cm of the proximal tibia was cut away and the frontal face was trimmed with a low-speed diamond wheel saw to expose the marrow cavity. The L4 lumbar vertebral body was prepared from the lumbar vertebra by trimming off the processes with a slow-speed diamond saw. Each proximal tibia and lumbar vertebral body was dehydrated in a series of ascending ethanol (EtOH) concentrations. Following dehydration, the bone samples were infiltrated and then embedded in a methyl methacrylate-dibutyl phthalate plastic composite. Embedded samples of the proximal tibiae were sectioned using a Leitz motorized rotary microtome equipped with a tungsten-carbide microtome knife. Once the blocks had been trimmed and faced to the sampling site, a 4-micron section was stained with Goldner's trichrome stain for bright field microscopy and an 8-micron section was left unstained for epifluorescent microscopy. Embedded lumbar vertebral body samples were also sectioned using a Leitz motorized rotary microtome equipped with a tungsten-carbide microtome knife. Once the blocks had been trimmed and faced to the sampling site, a 4-micron section was stained with Goldner's trichrome stain for bright field microscopy and an 8-micron section was left unstained for epifluorescent microscopy.
The cancellous bone in the secondary spongiosa of the proximal tibia was evaluated in a region of interest (ROI) that was 1.0 mm distal to the lowest point of the growth plate in a rectilinear region of 3×2 fields. The cancellous bone in the marrow cavity of the lumbar vertebral body was evaluated in a ROI that was approximately 0.5 mm away from the end plates and dorsal and ventral cortices.
The bone histomorphometry was performed using an OsteoMeasure software program (OsteoMetrics, Inc., Atlanta, Ga.) interfaced with a Nikon Eclipse E400 light/epifluorescent microscope and video subsystem. All slides were analyzed in a blinded manner. Total tissue area, trabecular bone area, trabecular bone perimeter and osteoclast perimeter and number were measured on 4 μm Goldner's trichrome-stained sections. Percent trabecular bone area, trabecular number, trabecular thickness, trabecular separation, osteoclast perimeter as a percentage of bone surface and osteoclast number per unit of bone surface were then calculated according to standardized formulae. For deriving the dynamic parameters, single-labeled calcein perimeter, double-labeled calcein perimeter and interlabel width (label thickness) were measured on 8 μm unstained sections. Mineralizing surface, mineral apposition rate and bone formation rate-surface, bone and tissue referents were calculated.

[2] = test system: rat Osteocalcin in serum; test: Rat Osteocalcin EIA in serum, orchidectomy model (Example 3); format: in vivo; details: castrated rats
Protocol: Male Sprague-Dawley rats (Harlan Sprague Dawley) were placed on study at 14-weeks of age. They were randomized and divided into five treatment groups: vehicle only (placebo, or P) after sham operation, vehicle only after orchidectomy (Orx), Toremifene (5 mg/kg/day) after sham-operation, and Toremifene after orchidectomy, and 17-β-estradiol (0.5 mg/kg/day) after orchidectomy. Test articles were delivered subcutaneously by Alzet pumps. Pumps were re-implanted every 30 days until the end of the study. Five to six animals from each group were sacrificed after 60 and 120 days of treatment, and femurs were harvested, stripped of soft tissue and muscle, and stored individually in polypropylene vials at −80° C. until analysis of bone density and mechanical strength testing. Additionally, serum was collected on days 15, 30, 60, 90 and 120, to measure markers of bone metabolism and to perform serum chemistry.
After collection, serum was divided into 3 aliquots and stored at −80° C. until analysis. 125 ul for serum biochemistry performed by AniLytics, Gaithersburg, Md. (Bone-Specific Alkaline Phosphatase, Calcium, Phosphorus, Creatinine and Bilirubin). 100 ul for serum Rat Osteocalcin ELISA and Serum RatLaps ELISA for C-terminal telopeptides determination. The rest of the collected serum was left for repeated test if necessary.
Rat Osteocalcin EIA, Biomedical Technologies, MA
This assay is specific for rat Osteocalcin and both carboxylated and decarboxylated rat Osteocalcin are recognized. A monoclonal antibody against the N-terminal region of Osteocalcin is bound to the polystyrene wells. The assay was performed in duplicates. 100 ul of standards, control and 1 to 20 diluted samples were added to appropriate wells and incubated overnight at 4 C. After washing the strips, 100 ul of Goat polyclonal antibody of high specificity for C-terminus of rat Osteocalcin was added and incubated 60 min at 37 C. […] The reaction was stopped, and the absorbance was measured at 450 nm. […] Sample osteocalcin concentrations were determined by interpolation.

[3] = test system: orchidectomized rats (ORX); test: Cantilever compression test of the femoral neck (Example 4); format: in vivo, rat; details: 12 weeks, mean
Protocol: Eight month-old male Sprague Dawley rats were either sham-operated (SHAM) or orchidectomized (ORX). Treatment began immediately following surgery. The treatment groups were as described in Table 5. Bone strength was evaluated using a compression test at the vertebral body, a three point bending test at the femoral shaft, a compression test at the distal femur and a cantilever compression test of the femoral neck. Prior to mechanical testing, all samples were thawed in cold saline and carefully cleaned of any remaining adherent soft tissue.

[4] = Toremifene 5 mg/kg/d, Estradiol 0.2 mg/kg/d
[5] = up to 120 days, Toremifene 5 mg/kg/day, 17-β-estradiol 0.5 mg/kg/day s.c., FIG. 2B

SMILES	loss of trabecular bone volume at the proximal tibia [1]	Orx-induced increase in bone turnover parameters at the proximal tibia [1]	Bone Form Rate, Bone Volume Ref [1, 4]	Bone Form. Rate, Bone Surface Ref [1, 4]	Bone Formation Rate, Tissue Volume Ref [1, 4]	Mineral Apposition Rate [1, 4]	Mineralizing Surface [1, 4]	Osteoclast Number/Bone Surface [1, 4]	Osteoclast Surface [1, 4]	Trabecular Bone Volume [1, 4]	Trabecular Number [1, 4]	Trabecular Separation [1, 4]	Trabecular Thickness [1, 4]	serum osteocalcin levels [2, 5]	further results
C[C@]12CC[C@@H]3c4ccc(O)cc4CC[C@H]3[C@@H]1CC[C@@H]2O [17-β-Estradiol]	very effective in preventing loss of trabecular bone volume	significantly inhibited	42.70 %/yr	10.63 um^3/um^2/yr	3.13 %/yr	0.43 um/day	5.31%	3.77 #/mm	6.35%	8.26%	1.75 #/mm	572 um	47.11 um	significantly reduce osteocalcin levels to below that of intact control rats	Energy ([3]; 0.2 mg/kg/d): 40.07 mJ; Maximum Load ([3]; 0.2 mg/kg/d): 114.96 N; Stiffness ([3]; 0.2 mg/kg/d): 209.95 N/mm
CN(C)CCOc1ccc(/C(=C(/CCCl)c2ccccc2)c2ccccc2)cc1 [Toremifene]	very effective in preventing loss of trabecular bone volume	significantly reduced the Orx-induced elevation in bone turnover parameters	58.20 %/yr	10.78 um^3/um^2/yr	2.30 %/yr	0.32 um/day	6.67%	3.98 #/mm	6.61%	5.33%	1.30 #/mm	837.67 um	41.39 um	significantly reduce osteocalcin levels to below that of intact control rats	Bone Form Rate, Bone Volume Ref ([1]; Toremifene 10 mg/kg/d): 21.26 %/yr; Bone Form. Rate, Bone Surface Ref ([1]; Toremifene 10 mg/kg/d): 4.78 um^3/um^2/yr; Bone Formation Rate, Tissue Volume Ref ([1]; Toremifene 10 mg/kg/d): 2.07 %/yr; Mineral Apposition Rate ([1]; Toremifene 10 mg/kg/d): 0.34 um/day; Mineralizing Surface ([1]; Toremifene 10 mg/kg/d): 3.02%; Osteoclast Number/Bone Surface ([1]; Toremifene 10 mg/kg/d): 3.33 #/mm; Osteoclast Surface ([1]; Toremifene 10 mg/kg/d): 5.27%; Trabecular Bone Volume ([1]; Toremifene 10 mg/kg/d): 8.81%; Trabecular Number ([1]; Toremifene 10 mg/kg/d): 1.85 #/mm; Trabecular Separation ([1]; Toremifene 10 mg/kg/d): 570.89 um; Trabecular Thickness ([1]; Toremifene 10 mg/kg/d): 45.54 um; serum osteocalcin levels ([2]; 15 days (p<0.05) and 30 days (p<0.02), Toremifene 5 mg/kg/day s.c., FIG. 2A): significantly reduced the osteocalcin levels in castrated animals to intact control levels; Energy ([3]; 5 mg/kg/d): 46.53 mJ; Maximum Load ([3]; 5 mg/kg/d): 116.46 N; Stiffness ([3]; 5 mg/kg/d): 211.77 N/mm; Energy ([3]; 10 mg/kg/d): 44.59 mJ; Maximum Load ([3]; 10 mg/kg/d): 117.50 N; Stiffness ([3]; 10 mg/kg/d): 211.73 N/mm
